{
  "source": "patent US9260444B2",
  "about": "“Crystalline form of 2-((1′-n-hexyloxy) ethyl)-2-divinyl-pyropheophorbide-a and method for preparing thereof” (Zhejiang Hisun Pharmaceutical Co., Ltd., priority 2012, dated 2016)",
  "key": {"[1]": {"experiment": "Long term stability experiment of the HPPH crystal", "format": "physicochemical", "details": "for Total impurity (%) / Content (based on dry weight, %): Temp 25° C. ± 2° C., Humidity 60% ± 5%; for Content (based on dry weight, %): standard content 98.0% to 102.0%", "experimental": "(§1) According to the Guidelines to the stability studies of active pharmaceutical ingredient and pharmaceutical preparation (Chinese Pharmacopoeia, 2010 Edition, the Second Part, Appendix XIX C) (Appendix 199 to 200), selecting the HPPH crystal sample prepared in Embodiment 1 (Lot No. S111101), mimicking pack to selling, placing it in an incubator at the temperature of 25° C.±2° C., and the relative humidity of 60%±5%, after 6 months, taking the sample out, and examining it with the key examination items for stability, then comparing the examination results with the results obtained in the 0 month."}, "[2]": {"experiment": "Accelerated stability experiment of the HPPH crystal", "format": "physicochemical", "details": "for Total impurity (%) / Content (based on dry weight, %): Temp 40° C. ± 2° C., Humidity 75% ± 5%; for Content (based on dry weight, %): standard content 98.0% to 102.0%", "experimental": "as §1, with “placing” for “placing it”, “40°” for “25°”, “75%±5%,” for “60%±5%,”"}, "[3]": {"test_system": "esophageal cancer", "details": "cited from earlier work"}},
  "data": [
    {"substance": "2-((1′-n-hexyloxy)ethyl)-2-divinyl-pyropheophorbide-a [HPPH crystal]", "values": [
      {"measurement": "Change of key stability examination items versus 0 month", "setting": "[1]; 25° C. ± 2° C., relative humidity 60% ± 5%, after 6 months", "result": "no examination item has shown significant change"},
      {"measurement": "Total impurity (%)", "setting": "[1]; 0 month", "result": 0.25, "unit": "%"},
      {"measurement": "Content (based on dry weight, %)", "setting": "[1]; 0 month", "result": 99.9, "unit": "%"},
      {"measurement": "Total impurity (%)", "setting": "[1]; 6 months", "result": 0.26, "unit": "%"},
      {"measurement": "Content (based on dry weight, %)", "setting": "[1]; 6 months", "result": 99.8, "unit": "%"},
      {"measurement": "Content in the 6 month sample versus 0 month", "setting": "[2]; 40° C. ± 2° C., relative humidity 75% ± 5%, after 6 months", "result": "slightly lower, yet still within the acceptable range"},
      {"measurement": "Total impurity (%)", "setting": "[2]; 0 month", "result": 0.25, "unit": "%"},
      {"measurement": "Content (based on dry weight, %)", "setting": "[2]; 0 month", "result": 99.9, "unit": "%"},
      {"measurement": "Total impurity (%)", "setting": "[2]; 6 months", "result": 0.27, "unit": "%"},
      {"measurement": "Content (based on dry weight, %)", "setting": "[2]; 6 months", "result": 98.9, "unit": "%"}
    ]},
    {"substance": "2-((1′-n-hexyloxy)ethyl)-2-divinyl-pyropheophorbide-a [HPPH]", "values": [
      {"measurement": "Photodynamic therapeutic efficacy", "setting": "[3]; 5 esophageal cancer patients, very low dose", "result": "very good photodynamic therapeutic efficacy"},
      {"measurement": "Photosensitive side effect of skin", "setting": "[3]; clinical observation, esophageal cancer patients", "result": "no photosensitive side effect of skin has been observed"}
    ]}
  ]
}
